Assay results published in patent publication US20140271573A1, “PHARMACO-CELLULAR THERAPEUTIC METHOD FOR THE TREATMENT OF MUSCULAR DYSTROPHIES” (PONTIFICIA UNIVERSIDAD CATÓLICA DE CHILE, priority 2013, published 2014).
Entries after “also recorded” stand apart in the source; their conditions may differ.

Tests used:
[1] = system: WT mice that overexpress CTGF; assay: Macrophages (F4/80 positive cells) in tibialis anterior of WT mice overexpressing CTGF by adenovirus; assay type: in vivo, mouse; settings: CTGF overexpressed by adenovirus
Protocol: FIG. 3. Andrographolide modulates CTGF action in vivo. A) To augment the extent of muscle fibrosis, 3 months old mdx mice were subjected to an exercise protocol for 3 months. Along this period one group was treated with 1 mg/kg andrographolide or vehicle (i.p. injections 3 time per week, 4 animal per group). CTGF mRNA levels, a downstream TGF-β1 pro-fibrotic mediator) were determined in tibialis anterior muscle from Wild type (WT), Vehicle-Treated mdx and andrographolide-treated mdx mice by RT-qPCR using GAPDH as reference gene. Values correspond to the mean of dCT value±SD of three independent experiments, using four mice for each experimental condition and normalized to WT levels (*, P<0.05 relative to WT mice; #, P<0.05 relative to Vehicle-treated mdx mice). B) Detection of macrophages (F4/80 positive cells) through immunohistochemistry analysis in cryosections of tibialis anterior muscle from andrographolide-treated WT mice that overexpress CTGF by adenovirus (adv CTGF) infection.
For immunofluorescence, snap-frozen muscles in thawing isopentane were sectioned and cryosections (7 μm) were fixed in 4% paraformaldehyde, blocked 1 hour in 10% goat serum in PBS, incubated for one hour at room temperature with specific antibodies against fibronectin (Sigma, USA), collagen I (Chemicon, USA), F4/80 (abcam, USA), p-Smad2 (abcam, USA) and dystrophin (Santa Cruz, USA). […]

[2] = system: CTGF; assay: CTGF expression induced by TGF-β1 in C2C12 cells, northern blot; assay type: cell-based, mouse; settings: C2C12, 10 ng/ml TGF-β1, 50 μM andrographolide, 6 hrs
Source text: FIG. 1. […] (Vial et al., 2008).

[3] = system: mdx mice; assay: Serum creatine kinase (CK) measurement in mdx mice; assay type: in vivo, mouse; settings: exercised mdx mice, 1 mg/kg i.p. 3 times per week for 3 months, vs vehicle
Protocol: FIG. 4. Andrographolide reduced skeletal muscle damage in mdx mice. To augment the extent of muscle fibrosis, 3 months old mdx mice were subjected to an exercise protocol for 3 months. Along this period one group was treated with 1 mg/kg andrographolide or vehicle (i.p. injections 3 time per week, 6 animal per group). […] B) Evans blue dye uptake in tibialis anterior muscle fibers from wild-type (WT), Vehicle-treated mdx and andrographolide-treated mdx mice. Nuclei were labeled with Hoechst. Mice were injected i.p. with 1% Evans blue dye 24 hours before muscle fixation. Bar corresponds to 200 μm. […] Values are expressed as mean±SD of three independent experiments, using eight mice for each experimental condition. (*, P<0.05 relative to WT mice; #, P<0.05 relative to Vehicle-treated mdx mice).
(§1) Control or mdx (12 weeks old) male mice of C57BL/10 ScSn strain were studied. The animals were kept at room temperature with a […] night-day cycle and fed with pellets and water ad libitum. […]
Mice were anesthetized by isofluorane gas, and blood was obtained from the periorbital vascular plexus directly into microhematocrit tubes (70 μl, Fisher Scientific). […] Serum CK was measured by enzymatic system (Valtek, Chile) according to the manufacturer instructions) (Osses and Brandan, 2002).

[4] = system: TGF-β1; assay: TGF-β1 mRNA levels in tibialis anterior muscle of exercised mdx mice, RT-qPCR; assay type: in vivo, mouse; settings: 1 mg/kg i.p. 3 times per week for 3 months, vs vehicle
Protocol: FIG. 2. Andrographolide reduced expression and activity of the pro-fibrotic cytokine, TGF-β1, in mdx mice. To augment the extent of muscle fibrosis, 3 months old mdx mice were subjected to an exercise protocol for 3 months. Along this period one group was treated with 1 mg/kg andrographolide or vehicle (i.p. injections 3 time per week, 4 animal per group). A) TGF-β1 mRNA levels, an important pro-fibrotic cytokine, were determined in tibialis anterior muscle from Wild type (WT), Vehicle-Treated mdx and andrographolide-treated mdx mice by RT-qPCR using GAPDH as reference gene. Values correspond to the mean of dCT value±SD of three independent experiments, using four mice for each experimental condition and normalized to WT levels (*, P<0.05 relative to WT mice; #, P<0.05 relative to Vehicle-treated mdx mice). B) Detection of pSmad-2 (an intracellular TGF-β1 mediator) through indirect immunofluorescence analysis in cryosections of tibialis anterior muscle from Vehicle-treated and andrographolide-treated mdx mice. Bar corresponds to 200 μm.
as §1

Compound: C=C1CC[C@@H]2[C@](C)(CO)[C@H](O)CC[C@@]2(C)[C@@H]1C/C=C1/C(=O)OC[C@H]1O [andrographolide]
- number of F4/80 (macrophage marker) positive cells [1]: reduced
- induction of CTGF expression in response to TGF-β1 [2]: reduced
- serum CK levels [3]: significant reduction; also recorded: decreased
- expression of TGF-β1 (mRNA) in mdx mice [4]: reduced
